# Results reported in ChEMBL document CHEMBL3885881, “DrugMatrix”.
# Species on record: Rattus norvegicus
# Experiment: DrugMatrix - Regimen: Daily Repeat
# Type: toxicity, organism-based, Sprague-Dawley
# Parameters: regimen Daily Repeat, gender Male, age 6-8 weeks
# Conditions: in vivo, iv, vehicle 100 % SALINE; for ABSOLUTE BASOPHIL / ABSOLUTE EOSINOPHIL / ABSOLUTE LYMPHOCYTE / ABSOLUTE MONOCYTE / ABSOLUTE SEGMENTED NEUTROPHIL / BASOPHIL / EOSINOPHIL / ERYTHROCYTE COUNT / HEMATOCRIT / HEMOGLOBIN / LEUKOCYTE COUNT / LYMPHOCYTE / MEAN CORPUSCULAR HEMOGLOBIN / MEAN CORPUSCULAR HEMOGLOBIN CONCENTRATION / MEAN CORPUSCULAR VOLUME / MONOCYTE / NEUTROPHIL / NUCLEATED RED BLOOD CELLS: tissue Blood; for ALANINE AMINOTRANSFERASE / ALKALINE PHOSPHATASE / ASPARTATE AMINOTRANSFERASE / BLOOD UREA NITROGEN / CARBON DIOXIDE / CHOLESTEROL / CREATINE PHOSPHOKINASE / CREATININE / GLUCOSE / LACTATE DEHYDROGENASE / LIPASE / SODIUM / TOTAL BILIRUBIN / TOTAL PROTEIN / URIC ACID: tissue Plasma
# [1] = 3 mg/kg, 120 h, dose level High, time 5 day
# [2] = […], 72 h, dose 0.65 mg/Kg, dose level Low, time 3 day
# [3] = […], 120 h, dose 0.65 mg/Kg, dose level Low, time 5 day
smiles,measurement,setting,value
COc1cccc2c1C(=O)c1c(O)c3c(c(O)c1C2=O)C[C@@](O)(C(=O)CO)C[C@@H]3O[C@H]1C[C@H](N)[C@H](O)[C@H](C)O1 [DOXORUBICIN],ABSOLUTE BASOPHIL,[1],0 CELLS/uL
same,ABSOLUTE EOSINOPHIL,[1],17.33 CELLS/uL
same,ABSOLUTE LYMPHOCYTE,[1],1693 CELLS/uL
same,ABSOLUTE MONOCYTE,[1],0 CELLS/uL
same,ABSOLUTE SEGMENTED NEUTROPHIL,[1],589.67 CELLS/uL
same,BASOPHIL,[1],0%
same,EOSINOPHIL,[1],0.67%
same,ERYTHROCYTE COUNT,[1],5.12 x10E6/uL
same,HEMATOCRIT,[1],32.6%
same,HEMOGLOBIN,[1],12.83 G/DL
same,LEUKOCYTE COUNT,[1],2.3 x10E3/uL
same,LYMPHOCYTE,[1],74%
same,MEAN CORPUSCULAR HEMOGLOBIN,[1],25.07 pg
same,MEAN CORPUSCULAR HEMOGLOBIN CONCENTRATION,[1],39.4 G/DL
same,MEAN CORPUSCULAR VOLUME,[1],63.73 fL
same,MONOCYTE,[1],0%
same,NEUTROPHIL,[1],25.33%
same,NUCLEATED RED BLOOD CELLS,[1],0 /100WBC
same,ALANINE AMINOTRANSFERASE,[1],34 u/L
same,ALKALINE PHOSPHATASE,[1],189.67 u/L
same,ASPARTATE AMINOTRANSFERASE,[1],86.33 u/L
same,BLOOD UREA NITROGEN,[1],12.33 mg/dL
same,CARBON DIOXIDE,[1],25.67 mmol/L
same,CHOLESTEROL,[1],95.67 mg/dL
same,CREATINE PHOSPHOKINASE,[1],299.33 u/L
same,CREATININE,[1],0.1 mg/dL
same,GLUCOSE,[1],147.67 mg/dL
same,LACTATE DEHYDROGENASE,[1],73.33 u/L
same,LIPASE,[1],8.33 u/L
same,SODIUM,[1],144.9 MEQ/L
same,TOTAL BILIRUBIN,[1],0.1 mg/dL
same,TOTAL PROTEIN,[1],5.77 G/DL
same,URIC ACID,[1],0.4 mg/dL
same,ABSOLUTE BASOPHIL,[2],0 CELLS/uL
same,ABSOLUTE EOSINOPHIL,[2],0 CELLS/uL
same,ABSOLUTE LYMPHOCYTE,[2],6184 CELLS/uL
same,ABSOLUTE SEGMENTED NEUTROPHIL,[2],275.33 CELLS/uL
same,BASOPHIL,[2],0%
same,EOSINOPHIL,[2],0%
same,ERYTHROCYTE COUNT,[2],5.13 x10E6/uL
same,HEMATOCRIT,[2],33%
same,HEMOGLOBIN,[2],13.03 G/DL
same,LEUKOCYTE COUNT,[2],6.5 x10E3/uL
same,LYMPHOCYTE,[2],94.67%
same,MEAN CORPUSCULAR HEMOGLOBIN,[2],25.47 pg
same,MEAN CORPUSCULAR HEMOGLOBIN CONCENTRATION,[2],39.5 G/DL
same,MEAN CORPUSCULAR VOLUME,[2],64.47 fL
same,MONOCYTE,[2],0.67%
same,NEUTROPHIL,[2],4.67%
same,NUCLEATED RED BLOOD CELLS,[2],0 /100WBC
same,ALANINE AMINOTRANSFERASE,[2],48.33 u/L
same,ALKALINE PHOSPHATASE,[2],370 u/L
same,ASPARTATE AMINOTRANSFERASE,[2],79.33 u/L
same,BLOOD UREA NITROGEN,[2],12.33 mg/dL
same,CARBON DIOXIDE,[2],30.33 mmol/L
same,CHOLESTEROL,[2],68.33 mg/dL
same,CREATINE PHOSPHOKINASE,[2],280.67 u/L
same,CREATININE,[2],0.29 mg/dL
same,GLUCOSE,[2],179 mg/dL
same,LACTATE DEHYDROGENASE,[2],81.33 u/L
same,LIPASE,[2],10.33 u/L
same,SODIUM,[2],144.23 MEQ/L
same,TOTAL BILIRUBIN,[2],0.1 mg/dL
same,TOTAL PROTEIN,[2],5.93 G/DL
same,URIC ACID,[2],0.87 mg/dL
same,ABSOLUTE BASOPHIL,[3],0 CELLS/uL
same,ABSOLUTE EOSINOPHIL,[3],49.33 CELLS/uL
same,ABSOLUTE LYMPHOCYTE,[3],5081.33 CELLS/uL
same,ABSOLUTE MONOCYTE,[3],14 CELLS/uL
same,ABSOLUTE SEGMENTED NEUTROPHIL,[3],188.67 CELLS/uL
same,BASOPHIL,[3],0%
same,EOSINOPHIL,[3],1%
same,ERYTHROCYTE COUNT,[3],5.28 x10E6/uL
same,HEMATOCRIT,[3],34.1%
same,HEMOGLOBIN,[3],13.37 G/DL
same,LEUKOCYTE COUNT,[3],5.33 x10E3/uL
same,LYMPHOCYTE,[3],95%
same,MEAN CORPUSCULAR HEMOGLOBIN,[3],25.3 pg
same,MEAN CORPUSCULAR HEMOGLOBIN CONCENTRATION,[3],39.17 G/DL
same,MEAN CORPUSCULAR VOLUME,[3],64.67 fL
same,MONOCYTE,[3],0.33%
same,NEUTROPHIL,[3],3.67%
same,NUCLEATED RED BLOOD CELLS,[3],0 /100WBC
same,ALANINE AMINOTRANSFERASE,[3],34.67 u/L
same,ALKALINE PHOSPHATASE,[3],365.33 u/L
same,ASPARTATE AMINOTRANSFERASE,[3],74.67 u/L
same,BLOOD UREA NITROGEN,[3],14 mg/dL
same,CARBON DIOXIDE,[3],26 mmol/L
same,CHOLESTEROL,[3],68.67 mg/dL
same,CREATINE PHOSPHOKINASE,[3],222 u/L
same,CREATININE,[3],0.14 mg/dL
same,GLUCOSE,[3],156 mg/dL
same,LACTATE DEHYDROGENASE,[3],60 u/L
same,LIPASE,[3],9 u/L
same,SODIUM,[3],145.47 MEQ/L
same,TOTAL BILIRUBIN,[3],0.1 mg/dL
same,TOTAL PROTEIN,[3],5.63 G/DL
same,URIC ACID,[3],0.23 mg/dL
